From ChEMBL document CHEMBL5096185, “Structure-Guided Development of Small-Molecule PRC2 Inhibitors Targeting EZH2-EED Interaction” (J Med Chem, 2021)
Calls of active or inactive are those of the source. No cut-off for these calls is given here.

Columns and labels:
[1] = Inhibition of FITC-labeled EZH2 (40 to 63 residues) (unknown origin)-recombinant N-terminal 6His-SUMO tagged human EED (81 to 441 residues) expressed in Escherichia coli BL21 (DE3) cells protein-protein interaction incubated for 2 hrs by fluorescence polarization competition assay
[2] = molecular target: T1, Polycomb protein EED (Homo sapiens, UniProt O75530); assay: Binding affinity to recombinant N-terminal 6His-SUMO tagged human EED (81 to 441 residues) expressed in Escherichia coli BL21 (DE3) cells assessed as dissociation constant measured after 240 sec by SPR-based binding assay
Target sequence in this assay (O75530 whole entry, the tested form may be a part): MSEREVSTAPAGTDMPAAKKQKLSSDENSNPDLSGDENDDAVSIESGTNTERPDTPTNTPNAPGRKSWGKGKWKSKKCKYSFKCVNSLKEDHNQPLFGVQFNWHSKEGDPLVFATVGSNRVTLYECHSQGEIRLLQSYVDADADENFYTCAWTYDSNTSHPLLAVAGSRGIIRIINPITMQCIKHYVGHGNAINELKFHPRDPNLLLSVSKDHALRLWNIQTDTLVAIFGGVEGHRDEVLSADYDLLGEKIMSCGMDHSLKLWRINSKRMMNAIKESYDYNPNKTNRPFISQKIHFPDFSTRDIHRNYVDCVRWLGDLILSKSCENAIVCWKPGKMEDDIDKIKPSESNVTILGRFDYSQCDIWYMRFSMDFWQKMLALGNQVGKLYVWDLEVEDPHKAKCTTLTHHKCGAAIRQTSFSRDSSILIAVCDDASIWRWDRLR

[3] = molecular target: T1, Polycomb protein EED; assay: Binding affinity to recombinant N-terminal 6His-SUMO tagged human EED (81 to 441 residues) expressed in Escherichia coli BL21 (DE3) cells assessed as binding constant (Kon) measured after 120 sec by SPR-based binding assay
Target sequence in this assay (O75530 2-441 limits assumed): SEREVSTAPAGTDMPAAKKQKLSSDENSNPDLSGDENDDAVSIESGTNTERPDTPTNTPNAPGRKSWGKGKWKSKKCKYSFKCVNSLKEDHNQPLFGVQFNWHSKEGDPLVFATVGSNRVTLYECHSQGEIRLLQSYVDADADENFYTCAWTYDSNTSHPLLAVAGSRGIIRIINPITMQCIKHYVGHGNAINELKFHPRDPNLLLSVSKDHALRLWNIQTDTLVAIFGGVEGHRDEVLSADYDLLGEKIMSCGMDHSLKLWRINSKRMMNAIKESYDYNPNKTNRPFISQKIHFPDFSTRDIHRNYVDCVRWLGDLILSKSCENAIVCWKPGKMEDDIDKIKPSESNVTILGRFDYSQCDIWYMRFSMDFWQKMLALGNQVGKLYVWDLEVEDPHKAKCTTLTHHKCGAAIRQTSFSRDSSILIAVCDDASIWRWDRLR

[4] = molecular target: T1, Polycomb protein EED; assay: Binding affinity to recombinant N-terminal 6His-SUMO tagged human EED (81 to 441 residues) expressed in Escherichia coli BL21 (DE3) cells assessed as binding constant (Koff) measured after 120 sec by SPR-based binding assay
Target sequence in this assay (O75530 2-441 limits assumed): as above

[5] = species on record: Homo sapiens; assay: Binding affinity to EZH2 (39 to 68 residues) (unknown origin)/recombinant N-terminal 6His-SUMO tagged human EED (81 to 441 residues) expressed in Escherichia coli BL21 (DE3) cells assessed as T1rho signal recovery at 50 to 100 uM by NMR-based binding assay; settings: dose 50-100 µM
[6] = tested on: Pfeiffer; assay: Inhibition of PRC2 in human Pfeiffer cells assessed as reduction in EZH2 protein level measured after 72 hrs by Western blot analysis; format: cell-based; settings: dose 0.6-10 µM, DDE = dose-dependent effect
[7] = tested on: Pfeiffer; assay: Inhibition of PRC2 in human Pfeiffer cells assessed as reduction in EED protein level measured after 72 hrs by Western blot analysis; format: cell-based; settings: dose 0.6-10 µM, DDE = dose-dependent effect
[8] = tested on: Pfeiffer; assay: Inhibition of PRC2 in human Pfeiffer cells assessed as reduction in SUZ12 protein level measured after 72 hrs by Western blot analysis; format: cell-based; settings: dose 0.6-10 µM, DDE = dose-dependent effect
[9] = tested on: Pfeiffer; assay: Inhibition of PRC2 in human Pfeiffer cells assessed as reduction in H3K27me3 level measured after 72 hrs by Western blot analysis; format: cell-based; settings: dose 0.6-10 µM, DDE = dose-dependent effect
[10] = tested on: Pfeiffer; assay: Antiproliferative activity against human Pfeiffer cells assessed as inhibition of cell growth incubated for 72 hrs by CellTiter-Glo assay; format: functional, cell-based
[11] = tested on: KARPAS-422; assay: Antiproliferative activity against human KARPAS-422 cells assessed as inhibition of cell growth incubated for 72 hrs by CellTiter-Glo assay; format: functional, cell-based; settings: KARPAS-422, 72 h
[12] = tested on: SUD4; assay: Antiproliferative activity against human SU-DHL-4 cells assessed as inhibition of cell growth incubated for 72 hrs by CellTiter-Glo assay; format: functional, cell-based; settings: SU-DHL-4, 72 h
[13] = tested on: DB; assay: Antiproliferative activity against human DB cells assessed as inhibition of cell growth incubated for 72 hrs by CellTiter-Glo assay; format: functional, cell-based
[14] = tested on: Pfeiffer; assay: Induction of cell cycle arrest in human Pfeiffer cells assessed as accumulation of cells in G0/G1 phase at 5 uM incubated for 2 days by PI/RNase staining based analysis (reference value: 52.3%); format: functional; settings: time 2 day
[15] = tested on: SUD4; assay: Induction of cell cycle arrest in human SU-DHL-4 cells assessed as accumulation of cells in G0/G1 phase at 5 uM incubated for 3 days by PI/RNase staining based analysis (reference value: 62.2 %); format: functional; settings: time 3 day
[16] = tested on: Pfeiffer; assay: Induction of cell cycle arrest in human Pfeiffer cells assessed as decrease of cells in G2/M phase at 5 uM incubated for 2 days by PI/RNase staining based analysis (reference value: 14.9 %); format: functional; set-up: scale not given: the % may be the effect or the level left; settings: time 2 day
[17] = tested on: Pfeiffer; assay: Induction of cell cycle arrest in human Pfeiffer cells assessed as decrease of cells in S phase at 5 uM incubated for 2 days by PI/RNase staining based analysis (reference value: 32.8 %); format: functional; set-up: scale not given: the % may be the effect or the level left; settings: time 2 day
[18] = tested on: SUD4; assay: Induction of cell cycle arrest in human SU-DHL-4 cells assessed as decrease of cells in G2/M phase at 5 uM incubated for 3 days by PI/RNase staining based analysis (reference value: 8.6 %); format: functional; set-up: scale not given: the % may be the effect or the level left; settings: time 3 day
[19] = tested on: SUD4; assay: Induction of cell cycle arrest in human SU-DHL-4 cells assessed as decrease of cells in G2/M phase at 5 uM incubated for 3 days by PI/RNase staining based analysis (reference value: 29.2 %); format: functional; set-up: scale not given: the % may be the effect or the level left; settings: time 3 day

SMILES	IC50 [1] [µM]	other results
COc1ccc(CCN2CCC(Nc3nc4ccccc4n3Cc3ccc([N+](=O)[O-])cc3)CC2)cc1	66.3	
COc1ccc(CCNCCCNc2nc3ccccc3n2Cc2ccc(F)cc2)cc1	464	
COc1ccc(CCN2CCC(Nc3nc4ccccc4n3Cc3ccc(F)cc3[N+](=O)[O-])CC2)cc1	80.1	
Cc1ccc(CCN2CCC(Nc3nc4ccccc4n3Cc3ccc(F)cc3)CC2)cc1	87.6	
COc1ccc(CCN2CCC(Nc3nc4ccccc4n3Cc3ccc(C)cc3)CC2)cc1	153	
Oc1ccccc1CCN1CCC(Nc2nc3ccccc3n2Cc2ccc(F)cc2)CC1	175	
COc1ccc(CCN2CCC(Nc3nc4ccccc4n3Cc3ccc(N)cc3)CC2)cc1	221	
Oc1ccc(CCN2CCC(Nc3nc4ccccc4n3Cc3ccc(F)cc3)CC2)cc1 [DESMETHEYLASTEMIZOLE]	190	
COc1ccc(CN[C@H]2CC[C@H](Nc3nc4ccccc4n3Cc3ccc(F)cc3)CC2)cc1	78.7	
COc1ccc(CCN2CCC(Nc3nc4cccc(N)c4n3Cc3ccc(F)cc3)CC2)cc1	73.8	
COc1ccc(CN[C@H]2CC[C@@H](Nc3nc4ccccc4n3Cc3ccc(F)cc3)CC2)cc1	> 500	
COc1ccc(CCN2CCC(Nc3nc4ccccc4n3Cc3ccc(F)cc3)C2)cc1 (centres undefined)		Kd [2]: 4.56 µM; K [3]: 4500 M⁻¹ s⁻¹; K [4]: 0.0205 s⁻¹; Activity [5]: Active; inhibition [6]: Dde; inhibition [7]: Dde; inhibition [8]: Dde; inhibition [9]: Dde; IC50 [10]: 3.77 µM; IC50 [11]: 5.97 µM; IC50 [12]: 5.87 µM; IC50 [13]: 9.62 µM; Activity [14]: 76.2%; Activity [15]: 84%; Activity [16]: 6.2%; Activity [17]: 17.6%; Activity [18]: 0%; Activity [19]: 16%
COc1ccc(CCN2CCC(Nc3nc4ccccc4n3Cc3ccc(F)cc3)CC2)cc1 [ASTEMIZOLE]	74.2	
COc1ccc(CCN2CCC(Nc3nc4ccccc4n3Cc3ccccc3)CC2)cc1	131	
O=[N+]([O-])c1cccc(CCN2CCC(Nc3nc4ccccc4n3Cc3ccc(F)cc3)CC2)c1	341	

Further compounds by falling IC50 [1], results first:

IC50 [1] [µM]	SMILES	other results
64.7	COc1ccc(CCN2CCC(Nc3nc4ccc(N)cc4n3Cc3ccc(F)cc3)CC2)cc1	
63.6	COc1ccc(CCN2CCC(Nc3nc4cc(N)ccc4n3Cc3ccc(F)cc3)CC2)cc1	
61.6	COc1ccc(CCN2CCC(Nc3nc4ccccc4n3Cc3ccc(F)c([N+](=O)[O-])c3)CC2)cc1	
61.5	Oc1cccc(CCN2CCC(Nc3nc4ccccc4n3Cc3ccc(F)cc3)CC2)c1	
60.8	COc1ccc(CCN2CCC(Nc3nc4ccccc4n3Cc3ccc(C(F)(F)F)cc3)CC2)cc1	
56.5	COc1ccc(CCN2CCC(Nc3nc4ccccc4n3Cc3ccc(F)c(F)c3)CC2)cc1	
48.6	COc1ccc(CCN2CCC(Nc3nc4c(N)cccc4n3Cc3ccc(F)cc3)CC2)cc1	
33.8	COc1ccc(CNc2ccc(Nc3nc4ccccc4n3Cc3ccc(F)cc3)cc2)cc1	
32.5	COc1ccc(CNc2ccc(Nc3nc4ccccc4n3Cc3ccc(F)cc3)cn2)cc1	
21.5	COc1ccc(CCN2CC(Nc3nc4ccccc4n3Cc3ccc(F)cc3)C2)cc1	
11.6	COc1ccc(CCNCCNc2nc3ccccc3n2Cc2ccc(F)cc2)cc1	
4.56	COc1ccc(CCN2CC[C@H](Nc3nc4ccccc4n3Cc3ccc(F)cc3)C2)cc1	
